According to paper PMC11864979, “First-in-class ultralong-target-residence-time p38α inhibitors as a mitosis-targeted therapy for colorectal cancer” (Nature Cancer, 2025):
Where two headings read alike, the source gives them in different places.

What was measured:
Experiment in all cases: selectivity profiling in a panel of 340 wild-type kinases (Reaction Biology Europe)
Assay type in all cases: binding
[1] = target: T1, 340 wild-type kinases (Homo sapiens, UniProt P78362)
T1 construct: purchased Reaction Biology Europe

[2] = target: T2, 340 wild-type kinases (Homo sapiens, UniProt Q9Y5S2)
T2 construct: purchased Reaction Biology Europe

[3] = target: T3, 340 wild-type kinases (Homo sapiens, UniProt Q9UIK4)
T3 construct: purchased Reaction Biology Europe

[4] = target: T4, 340 wild-type kinases (Homo sapiens, UniProt P54756)
T4 construct: purchased Reaction Biology Europe

[5] = target: T5, 340 wild-type kinases (Homo sapiens, UniProt Q9UBS0)
T5 construct: purchased Reaction Biology Europe

[6] = target: T6, 340 wild-type kinases (Homo sapiens, UniProt P35968)
T6 construct: purchased Reaction Biology Europe

[7] = target: T7, 340 wild-type kinases (Homo sapiens, UniProt P49760)
T7 construct: purchased Reaction Biology Europe

[8] = target: T8, 340 wild-type kinases (Homo sapiens, UniProt P37023)
T8 construct: purchased Reaction Biology Europe

[9] = target: T9, 340 wild-type kinases (Homo sapiens, UniProt Q96PF2)
T9 construct: purchased Reaction Biology Europe
T9 sequence (Q96PF2 1-358): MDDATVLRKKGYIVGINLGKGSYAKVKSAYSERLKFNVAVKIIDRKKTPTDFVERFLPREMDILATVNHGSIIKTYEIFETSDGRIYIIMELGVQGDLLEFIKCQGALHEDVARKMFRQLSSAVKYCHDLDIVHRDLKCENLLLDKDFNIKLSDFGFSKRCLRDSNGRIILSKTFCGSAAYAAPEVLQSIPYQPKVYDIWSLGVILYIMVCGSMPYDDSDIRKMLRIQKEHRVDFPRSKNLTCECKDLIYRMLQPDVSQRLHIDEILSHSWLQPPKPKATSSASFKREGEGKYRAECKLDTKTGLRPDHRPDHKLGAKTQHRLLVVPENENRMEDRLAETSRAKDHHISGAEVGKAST

[10] = target: T10, 340 wild-type kinases (Homo sapiens, UniProt Q9H093)
T10 construct: purchased Reaction Biology Europe
T10 sequence (Q9H093 1-628): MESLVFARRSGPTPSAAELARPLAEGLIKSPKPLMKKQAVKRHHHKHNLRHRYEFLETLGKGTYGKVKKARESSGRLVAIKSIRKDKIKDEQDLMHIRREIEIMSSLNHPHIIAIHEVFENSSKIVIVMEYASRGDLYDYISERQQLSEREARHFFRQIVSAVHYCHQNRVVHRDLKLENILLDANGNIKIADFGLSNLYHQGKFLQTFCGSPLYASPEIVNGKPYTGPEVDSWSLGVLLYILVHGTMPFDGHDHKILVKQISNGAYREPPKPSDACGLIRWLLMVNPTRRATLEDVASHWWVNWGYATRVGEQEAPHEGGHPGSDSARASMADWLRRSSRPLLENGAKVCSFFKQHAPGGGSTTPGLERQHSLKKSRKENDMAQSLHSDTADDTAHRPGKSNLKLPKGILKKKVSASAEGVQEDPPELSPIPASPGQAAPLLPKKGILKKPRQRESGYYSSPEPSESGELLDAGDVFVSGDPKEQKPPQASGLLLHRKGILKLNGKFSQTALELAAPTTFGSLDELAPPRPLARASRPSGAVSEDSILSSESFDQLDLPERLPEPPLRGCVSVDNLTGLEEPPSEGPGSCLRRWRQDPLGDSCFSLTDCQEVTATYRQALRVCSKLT

[11] = target: T11, 340 wild-type kinases (Homo sapiens, UniProt P23458)
T11 construct: purchased Reaction Biology Europe

[12] = target: T12, 340 wild-type kinases (Homo sapiens, UniProt Q8IZL9)
T12 construct: purchased Reaction Biology Europe

[13] = target: T13, 340 wild-type kinases (Homo sapiens, UniProt O96013)
T13 construct: purchased Reaction Biology Europe

[14] = target: T14, 340 wild-type kinases (Homo sapiens, UniProt Q15759)
T14 construct: purchased Reaction Biology Europe
T14 sequence (Q15759 whole entry): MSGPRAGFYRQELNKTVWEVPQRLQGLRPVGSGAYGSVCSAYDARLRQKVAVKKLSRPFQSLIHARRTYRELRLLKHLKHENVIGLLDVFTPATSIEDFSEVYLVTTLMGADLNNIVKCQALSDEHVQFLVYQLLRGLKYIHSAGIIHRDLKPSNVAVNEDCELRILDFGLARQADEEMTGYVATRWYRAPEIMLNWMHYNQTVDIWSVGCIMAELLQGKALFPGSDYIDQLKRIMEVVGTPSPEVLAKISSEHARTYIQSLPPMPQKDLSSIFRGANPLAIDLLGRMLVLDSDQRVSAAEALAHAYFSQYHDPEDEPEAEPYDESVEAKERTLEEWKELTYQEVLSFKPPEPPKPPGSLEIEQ

T8 sequence (P37023 22-503): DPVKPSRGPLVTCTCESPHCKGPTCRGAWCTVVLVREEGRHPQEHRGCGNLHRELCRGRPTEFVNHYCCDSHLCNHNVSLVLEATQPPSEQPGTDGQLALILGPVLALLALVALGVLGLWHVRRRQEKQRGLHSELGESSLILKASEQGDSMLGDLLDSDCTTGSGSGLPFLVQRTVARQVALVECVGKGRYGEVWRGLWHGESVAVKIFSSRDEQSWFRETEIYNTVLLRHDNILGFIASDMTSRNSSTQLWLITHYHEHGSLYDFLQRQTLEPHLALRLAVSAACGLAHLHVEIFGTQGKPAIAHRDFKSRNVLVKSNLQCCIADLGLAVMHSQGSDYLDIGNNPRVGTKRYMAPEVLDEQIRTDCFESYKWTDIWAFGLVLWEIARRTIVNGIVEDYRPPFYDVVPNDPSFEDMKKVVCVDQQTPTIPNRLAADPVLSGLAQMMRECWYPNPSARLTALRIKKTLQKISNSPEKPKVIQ
T13 sequence (O96013 whole entry): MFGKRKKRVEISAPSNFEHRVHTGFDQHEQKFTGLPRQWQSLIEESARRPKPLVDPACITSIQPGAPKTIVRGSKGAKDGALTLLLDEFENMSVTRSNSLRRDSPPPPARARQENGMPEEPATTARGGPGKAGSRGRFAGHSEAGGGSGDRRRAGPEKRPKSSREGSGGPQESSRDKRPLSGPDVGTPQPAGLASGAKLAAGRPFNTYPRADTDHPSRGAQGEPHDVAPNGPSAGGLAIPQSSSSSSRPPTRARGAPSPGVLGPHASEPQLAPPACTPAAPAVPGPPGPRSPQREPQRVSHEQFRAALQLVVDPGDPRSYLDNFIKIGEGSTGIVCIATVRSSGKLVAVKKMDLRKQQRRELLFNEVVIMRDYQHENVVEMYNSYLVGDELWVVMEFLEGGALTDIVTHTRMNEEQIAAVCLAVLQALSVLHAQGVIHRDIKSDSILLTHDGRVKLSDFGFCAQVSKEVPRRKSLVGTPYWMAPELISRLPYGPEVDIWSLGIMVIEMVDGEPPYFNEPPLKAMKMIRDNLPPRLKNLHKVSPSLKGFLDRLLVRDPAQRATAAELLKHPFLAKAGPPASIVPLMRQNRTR
T5 sequence (Q9UBS0 whole entry): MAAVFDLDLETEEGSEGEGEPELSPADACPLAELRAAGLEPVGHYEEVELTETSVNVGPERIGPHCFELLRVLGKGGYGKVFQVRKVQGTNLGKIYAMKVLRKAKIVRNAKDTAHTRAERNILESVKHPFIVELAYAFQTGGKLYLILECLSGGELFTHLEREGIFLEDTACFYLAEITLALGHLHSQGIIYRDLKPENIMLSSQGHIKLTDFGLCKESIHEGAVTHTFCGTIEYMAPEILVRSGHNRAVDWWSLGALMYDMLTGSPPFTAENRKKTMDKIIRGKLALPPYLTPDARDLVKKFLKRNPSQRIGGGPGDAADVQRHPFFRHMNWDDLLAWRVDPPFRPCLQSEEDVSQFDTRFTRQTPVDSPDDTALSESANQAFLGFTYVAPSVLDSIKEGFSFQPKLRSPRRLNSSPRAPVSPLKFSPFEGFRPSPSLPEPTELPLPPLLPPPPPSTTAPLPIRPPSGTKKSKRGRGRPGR
T4 sequence (P54756 25-1037): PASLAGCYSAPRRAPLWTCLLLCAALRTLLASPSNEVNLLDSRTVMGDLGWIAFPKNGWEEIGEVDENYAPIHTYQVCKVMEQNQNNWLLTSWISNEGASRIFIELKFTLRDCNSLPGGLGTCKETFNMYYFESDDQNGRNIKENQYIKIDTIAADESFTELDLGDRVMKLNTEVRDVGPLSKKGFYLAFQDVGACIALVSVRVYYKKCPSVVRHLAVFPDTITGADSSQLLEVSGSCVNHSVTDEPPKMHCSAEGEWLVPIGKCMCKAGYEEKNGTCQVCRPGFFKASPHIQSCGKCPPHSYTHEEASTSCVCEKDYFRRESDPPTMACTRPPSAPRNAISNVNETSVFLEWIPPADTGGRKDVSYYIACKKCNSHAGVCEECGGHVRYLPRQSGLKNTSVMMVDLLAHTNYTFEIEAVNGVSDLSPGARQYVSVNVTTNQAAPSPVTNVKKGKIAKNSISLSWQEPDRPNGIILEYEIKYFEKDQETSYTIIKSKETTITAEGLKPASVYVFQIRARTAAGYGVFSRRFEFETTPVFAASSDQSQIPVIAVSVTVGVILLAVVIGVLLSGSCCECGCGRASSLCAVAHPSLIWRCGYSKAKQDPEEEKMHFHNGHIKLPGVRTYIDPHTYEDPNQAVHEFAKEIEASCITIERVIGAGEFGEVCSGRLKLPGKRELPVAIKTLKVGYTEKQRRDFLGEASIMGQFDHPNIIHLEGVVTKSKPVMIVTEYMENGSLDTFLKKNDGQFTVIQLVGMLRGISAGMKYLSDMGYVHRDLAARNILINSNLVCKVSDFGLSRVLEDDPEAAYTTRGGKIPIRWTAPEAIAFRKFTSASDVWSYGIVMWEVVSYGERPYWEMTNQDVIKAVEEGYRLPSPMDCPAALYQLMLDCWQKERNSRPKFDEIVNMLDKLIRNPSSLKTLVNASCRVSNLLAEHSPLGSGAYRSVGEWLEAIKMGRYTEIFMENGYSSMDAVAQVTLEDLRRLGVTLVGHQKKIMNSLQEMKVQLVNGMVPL
T2 sequence (Q9Y5S2 whole entry): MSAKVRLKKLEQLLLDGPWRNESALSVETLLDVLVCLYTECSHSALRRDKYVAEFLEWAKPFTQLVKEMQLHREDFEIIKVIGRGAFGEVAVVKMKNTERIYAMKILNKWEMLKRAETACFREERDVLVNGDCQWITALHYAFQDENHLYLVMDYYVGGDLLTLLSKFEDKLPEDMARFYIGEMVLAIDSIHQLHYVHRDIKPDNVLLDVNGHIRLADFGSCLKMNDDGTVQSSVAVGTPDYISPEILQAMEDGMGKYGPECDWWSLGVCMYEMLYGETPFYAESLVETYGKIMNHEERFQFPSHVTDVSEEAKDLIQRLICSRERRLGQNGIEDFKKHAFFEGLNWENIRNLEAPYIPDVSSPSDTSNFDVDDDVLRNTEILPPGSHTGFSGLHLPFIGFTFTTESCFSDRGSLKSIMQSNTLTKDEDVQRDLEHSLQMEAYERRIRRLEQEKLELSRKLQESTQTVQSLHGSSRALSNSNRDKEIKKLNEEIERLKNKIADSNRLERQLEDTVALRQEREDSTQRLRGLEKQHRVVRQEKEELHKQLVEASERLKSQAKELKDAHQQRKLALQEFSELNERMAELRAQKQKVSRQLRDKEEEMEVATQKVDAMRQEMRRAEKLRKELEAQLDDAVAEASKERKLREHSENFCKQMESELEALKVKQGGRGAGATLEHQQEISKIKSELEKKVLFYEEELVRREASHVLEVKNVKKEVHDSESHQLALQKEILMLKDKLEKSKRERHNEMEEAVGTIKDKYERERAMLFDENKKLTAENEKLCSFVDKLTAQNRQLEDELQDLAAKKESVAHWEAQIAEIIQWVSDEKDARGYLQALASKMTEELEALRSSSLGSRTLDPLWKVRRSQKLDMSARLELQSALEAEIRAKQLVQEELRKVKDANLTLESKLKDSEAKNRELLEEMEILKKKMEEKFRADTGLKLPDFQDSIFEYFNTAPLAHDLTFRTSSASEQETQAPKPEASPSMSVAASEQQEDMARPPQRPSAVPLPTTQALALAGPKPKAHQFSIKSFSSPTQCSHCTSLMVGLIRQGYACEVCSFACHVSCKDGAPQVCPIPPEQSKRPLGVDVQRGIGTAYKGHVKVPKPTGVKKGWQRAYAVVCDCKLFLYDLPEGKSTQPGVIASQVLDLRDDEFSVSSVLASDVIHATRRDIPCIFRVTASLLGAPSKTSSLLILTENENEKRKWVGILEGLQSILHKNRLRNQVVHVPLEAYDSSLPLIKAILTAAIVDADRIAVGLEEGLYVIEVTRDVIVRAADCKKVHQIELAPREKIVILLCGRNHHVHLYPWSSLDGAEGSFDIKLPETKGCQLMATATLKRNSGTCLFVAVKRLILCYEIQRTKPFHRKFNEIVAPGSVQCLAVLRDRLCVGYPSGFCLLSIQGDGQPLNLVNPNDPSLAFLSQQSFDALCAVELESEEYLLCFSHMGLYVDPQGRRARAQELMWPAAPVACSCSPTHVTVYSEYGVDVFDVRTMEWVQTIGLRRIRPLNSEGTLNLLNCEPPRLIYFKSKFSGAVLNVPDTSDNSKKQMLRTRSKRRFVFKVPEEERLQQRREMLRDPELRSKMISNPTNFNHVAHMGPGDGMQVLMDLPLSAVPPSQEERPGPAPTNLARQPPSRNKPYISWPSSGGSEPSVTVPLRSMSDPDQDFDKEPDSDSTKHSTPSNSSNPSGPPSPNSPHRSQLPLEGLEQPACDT
T3 sequence (Q9UIK4 whole entry): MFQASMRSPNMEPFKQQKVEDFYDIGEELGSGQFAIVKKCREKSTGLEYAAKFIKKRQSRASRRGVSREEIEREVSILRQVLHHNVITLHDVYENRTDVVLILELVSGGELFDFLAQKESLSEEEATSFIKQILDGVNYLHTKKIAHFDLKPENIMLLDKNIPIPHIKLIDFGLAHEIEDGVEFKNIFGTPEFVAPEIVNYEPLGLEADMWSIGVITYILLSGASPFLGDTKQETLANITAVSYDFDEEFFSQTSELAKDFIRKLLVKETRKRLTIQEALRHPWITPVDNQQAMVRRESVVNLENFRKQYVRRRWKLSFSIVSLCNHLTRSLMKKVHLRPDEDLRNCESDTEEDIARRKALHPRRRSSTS

Compound: CNC(=O)c1ccc2c(c1)C(=O)c1ccc(Nc3ccc(F)c(NC(=O)C4CC4)c3)cc1CC2 [Compound 2015]
- remaining activity at 0.2 µM ([1]; 0.2 µM 2015, read-out: SRPK2 residual activity): 89.5%
- remaining activity at 1 µM ([1]; 1 µM 2015, read-out: SRPK2 residual activity): 91.2%
- remaining activity at 0.2 µM ([1]; SRPK2, 0.2 µM, read-out: residual activity): 89.5%
- remaining activity at 1 µM ([1]; SRPK2, 1 µM, read-out: residual activity): 91.2%
- remaining activity at 0.2 µM ([2]; 0.2 µM 2015, read-out: CDC42BPB residual activity): 101%
- remaining activity at 1 µM ([2]; 1 µM 2015, read-out: CDC42BPB residual activity): 93.2%
- remaining activity at 0.2 µM ([2]; CDC42BPB, 0.2 µM, read-out: residual activity): 101%
- remaining activity at 1 µM ([2]; CDC42BPB, 1 µM, read-out: residual activity): 93.2%
- remaining activity at 0.2 µM ([3]; 0.2 µM 2015, read-out: DAPK2 residual activity): 116%
- remaining activity at 1 µM ([3]; 1 µM 2015, read-out: DAPK2 residual activity): 100%
- remaining activity at 0.2 µM ([3]; DAPK2, 0.2 µM, read-out: residual activity): 116%
- remaining activity at 1 µM ([3]; DAPK2, 1 µM, read-out: residual activity): 100%
- remaining activity at 0.2 µM ([4]; 0.2 µM 2015, read-out: EPHA5 residual activity): 110%
- remaining activity at 1 µM ([4]; 1 µM 2015, read-out: EPHA5 residual activity): 98.5%
- remaining activity at 0.2 µM ([4]; EPHA5, 0.2 µM, read-out: residual activity): 110%
- remaining activity at 1 µM ([4]; EPHA5, 1 µM, read-out: residual activity): 98.5%
- remaining activity at 0.2 µM ([5]; 0.2 µM 2015, read-out: S6Kbeta residual activity): 108%
- remaining activity at 1 µM ([5]; 1 µM 2015, read-out: S6Kbeta residual activity): 109%
- remaining activity at 0.2 µM ([5]; S6Kbeta, 0.2 µM, read-out: residual activity): 108%
- remaining activity at 1 µM ([5]; S6Kbeta, 1 µM, read-out: residual activity): 109%
- remaining activity at 0.2 µM ([6]; 0.2 µM 2015, read-out: VEGFR2 residual activity): 86.7%
- remaining activity at 1 µM ([6]; 1 µM 2015, read-out: VEGFR2 residual activity): 96.7%
- remaining activity at 0.2 µM ([6]; VEGFR2, 0.2 µM, read-out: residual activity): 86.7%
- remaining activity at 1 µM ([6]; VEGFR2, 1 µM, read-out: residual activity): 96.7%
- remaining activity at 0.2 µM ([7]; 0.2 µM 2015, read-out: CLK2 residual activity): 110%
- remaining activity at 1 µM ([7]; 1 µM 2015, read-out: CLK2 residual activity): 96.8%
- remaining activity at 0.2 µM ([7]; CLK2, 0.2 µM, read-out: residual activity): 110%
- remaining activity at 1 µM ([7]; CLK2, 1 µM, read-out: residual activity): 96.8%
- remaining activity at 0.2 µM ([8]; 0.2 µM 2015, read-out: ACVRL1 residual activity): 100%
- remaining activity at 1 µM ([8]; 1 µM 2015, read-out: ACVRL1 residual activity): 102%
- remaining activity at 0.2 µM ([8]; ACVRL1, 0.2 µM, read-out: residual activity): 100%
- remaining activity at 1 µM ([8]; ACVRL1, 1 µM, read-out: residual activity): 102%
- remaining activity at 0.2 µM ([9]; 0.2 µM 2015, read-out: TSK2 residual activity): 104%
- remaining activity at 1 µM ([9]; 1 µM 2015, read-out: TSK2 residual activity): 106%
- remaining activity at 0.2 µM ([9]; TSK2, 0.2 µM, read-out: residual activity): 104%
- remaining activity at 1 µM ([9]; TSK2, 1 µM, read-out: residual activity): 106%
- remaining activity at 0.2 µM ([10]; 0.2 µM 2015, read-out: SNARK residual activity): 97%
- remaining activity at 1 µM ([10]; 1 µM 2015, read-out: SNARK residual activity): 92.5%
- remaining activity at 0.2 µM ([10]; SNARK, 0.2 µM, read-out: residual activity): 97%
- remaining activity at 1 µM ([10]; SNARK, 1 µM, read-out: residual activity): 92.5%
- remaining activity at 0.2 µM ([11]; 0.2 µM 2015, read-out: JAK1 residual activity): 86.7%
- remaining activity at 1 µM ([11]; 1 µM 2015, read-out: JAK1 residual activity): 99.8%
- remaining activity at 0.2 µM ([11]; JAK1, 0.2 µM, read-out: residual activity): 86.7%
- remaining activity at 1 µM ([11]; JAK1, 1 µM, read-out: residual activity): 99.8%
- remaining activity at 0.2 µM ([12]; 0.2 µM 2015, read-out: CDK20/CycH residual activity): 107%
- remaining activity at 0.2 µM ([12]; 0.2 µM 2015, read-out: CDK20/CycT1 residual activity): 103%
- remaining activity at 1 µM ([12]; 1 µM 2015, read-out: CDK20/CycH residual activity): 97.2%
- remaining activity at 1 µM ([12]; 1 µM 2015, read-out: CDK20/CycT1 residual activity): 96.3%
- remaining activity at 0.2 µM ([12]; CDK20/CycH, 0.2 µM, read-out: residual activity): 107%
- remaining activity at 1 µM ([12]; CDK20/CycH, 1 µM, read-out: residual activity): 97.2%
- remaining activity at 0.2 µM ([12]; CDK20/CycT1, 0.2 µM, read-out: residual activity): 103%
- remaining activity at 1 µM ([12]; CDK20/CycT1, 1 µM, read-out: residual activity): 96.3%
- remaining activity at 0.2 µM ([13]; 0.2 µM 2015, read-out: PAK4 residual activity): 92.5%
- remaining activity at 1 µM ([13]; 1 µM 2015, read-out: PAK4 residual activity): 85.8%
- remaining activity at 0.2 µM ([13]; PAK4, 0.2 µM, read-out: residual activity): 92.5%
- remaining activity at 1 µM ([13]; PAK4, 1 µM, read-out: residual activity): 85.8%
- remaining activity at 0.2 µM ([14]; 0.2 µM 2015, read-out: p38beta residual activity): 1.85%
- remaining activity at 1 µM ([14]; 1 µM 2015, read-out: p38beta residual activity): 1.94%
- remaining activity at 0.2 µM ([14]; p38beta, 0.2 µM, read-out: residual activity): 1.85%
- remaining activity at 1 µM ([14]; p38beta, 1 µM, read-out: residual activity): 1.94%
